Laboratory results as given in patent US12331053B2, “Method for obtaining amorphous remimazolam besylate” (MOEHS IBERICA, S.L., priority 2019, dated 2025).
Read-outs that look alike come from different tables or passages of the source.

Tests used:
[1] = free base, cited from earlier work
[2] = Stability study: storage in climatic chambers, solid form checked by XRPD and DSC; type: physicochemical; conditions: for solid form stability after storage (XRPD) / solid form stability after storage (XRPD, DSC): 40° C. and 80% relative humidity; for solid form stability after storage (XRPD): 6 months
Experimental: The XRPD analysis was performed using a Siemens model D-5000 X-ray powder diffractometer equipped with a copper anode. The radiation used is CuKα with a wavelength of 1.541838 Å. Scanning parameters: 4-50 degrees 2θ, continuous scan, ratio: 1.2 degrees/minute.
The differential scanning calorimetry (DSC) analysis was performed in a Mettler Toledo 822e apparatus with STARe SW15.00 software. Parameters: range of heating from 25 to 300° C. with a ramp of 20° C./min and a N2 flow of 50 mL/min. The measurement was taken with a closed perforated capsule.
This is proven in the stability results of the product in amorphous form obtained according to assays 1.5 (lyophilization in acetonitrile) and 1.6 (lyophilization in water) indicated in Table 1. To determine said stability, the product was stored in climatic chambers under two different conditions: a) temperature of 40° C. and 80% relative humidity and b) temperature of 25° C. and 60% relative humidity.

[3] = lyophilized alone, without excipients; cited from earlier work

## COC(=O)CC[C@@H]1N=C(c2ccccn2)c2cc(Br)ccc2-n2c(C)cnc21 [remimazolam, methyl 3-{(4S)-8-bromo-1-methyl-6-(pyridin-2-yl)-4H-imidazo[1,2-a][1,4]benzodiazepin-4-yl}propanoate]
[1]; 40° C. and 75% relative humidity, open vial
  storage stability: behaves like a deliquescent solid
[1]; 60° C. and ambient humidity, closed vial
  storage stability: behaves like a deliquescent solid
[1]; stored at 5° C.
  storage stability: stable

## COC(=O)CC[C@@H]1N=C(c2ccccn2)c2cc(Br)ccc2-n2c(C)cnc21.O=S(=O)(O)c1ccccc1 [Assay 1.5, remimazolam besylate]
[2]
  solid form stability after storage (XRPD): still maintains the initial characteristics in terms of the amorphous form
[2]; 15 days
  solid form stability after storage (XRPD, DSC): still maintains the initial characteristics in terms of the amorphous form
[2]; 30 days
  solid form stability after storage (XRPD, DSC): still maintains the initial characteristics in terms of the amorphous form

## COC(=O)CC[C@@H]1N=C(c2ccccn2)c2cc(Br)ccc2-n2c(C)cnc21.O=S(=O)(O)c1ccccc1 [remimazolam besylate]
[3]
  stability after lyophilization: did not result in satisfactory stability

## COC(=O)CC[C@@H]1N=C(c2ccccn2)c2cc(Br)ccc2-n2c(C)cnc21.O=S(=O)(O)c1ccccc1 [Comparative Example 3, remimazolam besylate]
[2]; 4° C., one month
  solid form after storage (XRPD): crystalline form 2
[2]; 40° C. and 80% RH, one week
  solid form after storage (XRPD, DSC): crystalline form 2

## COC(=O)CC[C@@H]1N=C(c2ccccn2)c2cc(Br)ccc2-n2c(C)cnc21.O=S(=O)(O)c1ccccc1 [Assay 1.6, remimazolam besylate]
[2]
  solid form stability after storage (XRPD): still maintains the initial characteristics in terms of the amorphous form
[2]; 15 days
  solid form stability after storage (XRPD, DSC): still maintains the initial characteristics in terms of the amorphous form
